ChEMBL document CHEMBL1201862, “PubChem BioAssay data set” (2004)
Activity calls are given as the source filed them.

Tests used:
[1] = biological target: Voltage-dependent T-type calcium channel subunit alpha-1H (Homo sapiens, UniProt O95180); format: functional;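 further: channel activity triggered by adding a high calcium stimulation buffer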
[2] = biological target: T1, Short transient receptor potential channel 4 (Mus musculus, UniProt Q9QUQ5); assay: calcium entry via TRPC4 opening agents – cell-based, HEK293 TRPC4/mu-opioid, Fluo-4 calcium, dose response (AID 434937); format: functional
T1 sequence (Q9QUQ5 whole entry): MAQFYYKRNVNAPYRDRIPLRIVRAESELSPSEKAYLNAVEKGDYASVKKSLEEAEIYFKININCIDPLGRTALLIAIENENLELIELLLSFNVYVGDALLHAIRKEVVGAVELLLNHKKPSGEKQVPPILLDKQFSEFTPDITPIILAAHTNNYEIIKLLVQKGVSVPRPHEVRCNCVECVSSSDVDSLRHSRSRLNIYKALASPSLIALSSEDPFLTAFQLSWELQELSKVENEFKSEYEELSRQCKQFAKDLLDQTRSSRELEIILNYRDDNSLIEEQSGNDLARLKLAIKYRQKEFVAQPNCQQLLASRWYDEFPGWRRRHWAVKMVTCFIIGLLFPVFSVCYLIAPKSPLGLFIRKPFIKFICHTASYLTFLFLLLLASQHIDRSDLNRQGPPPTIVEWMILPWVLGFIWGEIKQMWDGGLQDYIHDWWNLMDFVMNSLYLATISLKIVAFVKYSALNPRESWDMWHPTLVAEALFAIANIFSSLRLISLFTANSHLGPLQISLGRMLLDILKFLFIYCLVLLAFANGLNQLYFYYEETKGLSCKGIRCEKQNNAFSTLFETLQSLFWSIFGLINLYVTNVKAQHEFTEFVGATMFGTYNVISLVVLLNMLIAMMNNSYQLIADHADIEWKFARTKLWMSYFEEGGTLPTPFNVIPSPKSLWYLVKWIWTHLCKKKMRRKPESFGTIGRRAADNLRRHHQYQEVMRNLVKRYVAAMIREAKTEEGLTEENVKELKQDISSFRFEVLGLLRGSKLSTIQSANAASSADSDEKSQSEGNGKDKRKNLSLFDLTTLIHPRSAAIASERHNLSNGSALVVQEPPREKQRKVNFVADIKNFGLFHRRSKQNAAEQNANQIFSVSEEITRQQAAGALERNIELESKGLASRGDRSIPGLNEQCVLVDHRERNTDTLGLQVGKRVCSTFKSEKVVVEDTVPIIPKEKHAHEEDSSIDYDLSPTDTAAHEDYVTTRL

[3] = biological target: Alkaline phosphatase, placental type (Homo sapiens, UniProt P05187); assay: human placental alkaline phosphatase inhibition – biochemical, luminescence, confirmation (AID 1512); format: functional
[4] = biological target: T2, Alkaline phosphatase, tissue-nonspecific isozyme (Homo sapiens, UniProt P05186); assay: potency against alkaline phosphatase TNAP – biochemical, luminescent, dose response, SAR follow-up (AID 1056)
T2 sequence (P05186 whole entry): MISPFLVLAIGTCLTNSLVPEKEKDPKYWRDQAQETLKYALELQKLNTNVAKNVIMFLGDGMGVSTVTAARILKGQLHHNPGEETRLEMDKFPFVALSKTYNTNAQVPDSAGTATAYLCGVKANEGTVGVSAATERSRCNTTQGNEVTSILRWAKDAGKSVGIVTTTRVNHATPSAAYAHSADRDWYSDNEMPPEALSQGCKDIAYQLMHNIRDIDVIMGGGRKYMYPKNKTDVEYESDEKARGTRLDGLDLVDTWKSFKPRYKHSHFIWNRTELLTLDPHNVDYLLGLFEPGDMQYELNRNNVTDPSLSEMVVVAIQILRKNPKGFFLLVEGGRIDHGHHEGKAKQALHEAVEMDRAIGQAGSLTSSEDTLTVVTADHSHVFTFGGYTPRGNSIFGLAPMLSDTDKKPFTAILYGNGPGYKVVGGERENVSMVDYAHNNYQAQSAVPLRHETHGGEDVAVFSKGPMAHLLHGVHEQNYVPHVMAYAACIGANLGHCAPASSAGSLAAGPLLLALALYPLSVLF

[5] = biological target: Glyceraldehyde-3-phosphate dehydrogenase (Homo sapiens, UniProt P04406)
[6] = Trypanosoma cruzi growth suppression in host cells – NIH3T3 host cells, beta-gal luminescence, confirmation (AID 2044); format: functional, cell-based;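 further: intracellular parasites grown in NIH/3T3 mouse fibroblasts as host cells; luminescent beta-galactosidase reporter signal from transgenic T. cruzi replicating inside host cells; inhibitors lower the luminescence signal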
[7] = THP-1 cell cytotoxicity, dose response, cytotoxicity control for non-replicating M. tuberculosis project (AID 489025); format: functional
[8] = HepG2 cell cytotoxicity, dose response, cytotoxicity control for non-replicating M. tuberculosis project (AID 489018); format: functional; details: Mycobacterium tuberculosis
[9] = microbe, parasite or virus in culture; format: functional; details: Mycobacterium tuberculosis
[10] = Vero E6 cell cytotoxicity, dose response, cytotoxicity control for non-replicating M. tuberculosis project, secondary assay (AID 492998); format: functional, VeroE6; details: Vero C1008
[11] = NIH3T3 cell viability loss – ATP luminescence, mouse fibroblasts, counter-screen, dose response (AID 2010); format: functional, cell-based;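 further: cells exposed to compound for about 90 hours before reading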
cells = format: functional
BJ [12] = assay: BJ-TERT-LT-ST fibroblast viability loss – cell-based, RAS-independent, luminescence, dose response (AID 1935); format: functional; details: Homo sapiens;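 further: BJ fibroblasts immortalized with TERT plus LT and ST oncogenes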
Paired box protein Pax-8 = Paired box protein Pax-8 (Homo sapiens, UniProt Q06710); assay: PAX8 transcriptional activity inhibition in RMG-I – RMG-I cells, luciferase, cherry-pick, dose response (AID 687027); format: functional, cell-based;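 further: luciferase reporter driven by Pax8 target thyroperoxidase promoter measured by SteadyGlo luminescence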
[13] = Luminescence Cell-Based Dose Response HTS to Identify Inhibitors of 5'UTR Stem-Loop Driven Prion Protein mRNA Translation in H4 Neuroglioblastoma Cells. [Related pubchem assays: 1827 (Project Summary), 1813 (Primary HTS)]; format: functional
[14] = luciferase reporter signal suppression in cells – H4 neuroglioma cells, luminescence, dose response (AID 1990); format: functional, cell-based
BJ [15] = assay: BJ-TERT fibroblast viability loss – cell-based, RAS-independent, luminescence, dose response (AID 1933); format: functional; details: Homo sapiens
BJ [16] = assay: cells; format: functional, cell-based; details: Homo sapiens
[17] = alpha-synuclein stem-loop luciferase translation blockers – H4 neuroglioma cells, luminescence, confirmation (AID 1988); format: functional, cell-based
[18] = Luminescence-based dose response cell-based high throughput screening assay for cytotoxic compounds using the IEC-6 intestinal epithelial cell line. [Related pubchem assays: 1858 (Summary AID.), 1825 (Counterscreen.), 1907 (Confirmation screen.)]; format: functional
[19] = DRD fibroblast viability loss – cell-based, non-viral oncogenic, luminescence, dose response (AID 1934); format: functional; details: Homo sapiens
[20] = general cell-killing toxicity readout – plate reader, dry powder samples, cytotoxicity control for PAX8 inhibitor project, dose response (AID 743021); format: functional, cell-based
Protein RecA = biological target: T3, Protein RecA (Mycobacterium tuberculosis, UniProt P9WHJ3); assay: Fluorescence Cell-Free Homogeneous Dose Retest to Identify Inhibitors of RecA-Intein Splicing Activity. [Related pubchem assays (depositor defined):AID2097, AID2223, AID489010, AID492950]; format: functional
T3 sequence (P9WHJ3 whole entry): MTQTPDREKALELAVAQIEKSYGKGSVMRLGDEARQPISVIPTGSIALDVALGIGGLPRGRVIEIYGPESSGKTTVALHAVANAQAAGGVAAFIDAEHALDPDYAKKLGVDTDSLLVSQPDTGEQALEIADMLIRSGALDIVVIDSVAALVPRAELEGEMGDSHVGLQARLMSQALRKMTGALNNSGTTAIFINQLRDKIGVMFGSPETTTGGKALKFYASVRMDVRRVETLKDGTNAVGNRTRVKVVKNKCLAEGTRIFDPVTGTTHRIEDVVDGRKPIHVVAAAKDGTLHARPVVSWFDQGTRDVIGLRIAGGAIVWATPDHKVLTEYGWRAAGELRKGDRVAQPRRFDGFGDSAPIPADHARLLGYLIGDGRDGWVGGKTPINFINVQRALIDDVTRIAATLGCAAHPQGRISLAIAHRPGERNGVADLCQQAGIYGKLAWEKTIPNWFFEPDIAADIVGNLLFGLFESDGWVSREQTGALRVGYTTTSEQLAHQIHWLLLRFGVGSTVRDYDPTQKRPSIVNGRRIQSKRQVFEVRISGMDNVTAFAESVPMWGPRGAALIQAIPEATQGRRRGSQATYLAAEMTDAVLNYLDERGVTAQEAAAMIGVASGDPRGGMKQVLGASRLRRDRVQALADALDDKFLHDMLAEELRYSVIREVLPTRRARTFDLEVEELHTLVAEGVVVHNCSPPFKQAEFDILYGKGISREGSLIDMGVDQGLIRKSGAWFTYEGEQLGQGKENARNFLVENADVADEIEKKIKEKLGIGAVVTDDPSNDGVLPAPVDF

INS1 = assay: INS-1E survival protection against cytokine death – cell-based, luminescence, retest, dose response (AID 449756); format: functional; details: Rattus norvegicus;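 further: cell death triggered by IL-1 beta plus TNF-alpha plus IFN-gamma mixture; protective hits raise ATP signal compared with cytokine alone wells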
[21] = biological target: T4, Replicative DNA helicase DnaB (Mycobacterium tuberculosis, UniProt P9WMR3); assay: DnaB intein splicing inhibitors, dose response, biochemical, cell-free fluorescence (AID 449749); format: functional
T4 sequence (P9WMR3 whole entry): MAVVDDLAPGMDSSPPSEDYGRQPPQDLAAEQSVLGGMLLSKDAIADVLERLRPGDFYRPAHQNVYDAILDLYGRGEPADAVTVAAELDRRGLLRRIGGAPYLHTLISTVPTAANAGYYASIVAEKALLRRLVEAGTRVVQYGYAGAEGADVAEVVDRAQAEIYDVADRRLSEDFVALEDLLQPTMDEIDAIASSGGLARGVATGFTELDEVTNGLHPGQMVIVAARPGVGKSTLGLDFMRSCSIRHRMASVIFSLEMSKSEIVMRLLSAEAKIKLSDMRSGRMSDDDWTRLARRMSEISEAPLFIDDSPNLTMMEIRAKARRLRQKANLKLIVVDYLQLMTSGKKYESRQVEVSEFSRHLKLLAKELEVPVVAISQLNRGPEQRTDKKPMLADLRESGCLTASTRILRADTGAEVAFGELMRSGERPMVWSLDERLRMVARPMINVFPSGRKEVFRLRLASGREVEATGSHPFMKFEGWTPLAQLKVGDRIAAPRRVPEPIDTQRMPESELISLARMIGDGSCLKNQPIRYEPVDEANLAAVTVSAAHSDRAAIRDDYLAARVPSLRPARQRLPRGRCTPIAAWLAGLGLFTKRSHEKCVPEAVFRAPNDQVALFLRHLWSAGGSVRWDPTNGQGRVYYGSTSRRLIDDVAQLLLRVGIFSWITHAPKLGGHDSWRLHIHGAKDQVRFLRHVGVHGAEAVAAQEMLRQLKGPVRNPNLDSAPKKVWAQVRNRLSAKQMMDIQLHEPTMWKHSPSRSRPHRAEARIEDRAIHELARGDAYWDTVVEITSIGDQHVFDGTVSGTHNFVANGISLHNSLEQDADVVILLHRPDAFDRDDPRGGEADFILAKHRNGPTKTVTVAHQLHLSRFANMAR

BJ [22] = assay: growth inhibition of engineered Ras-driven BJ cells – cell-based, alamar blue fluorescence, cherrypicked samples, dose response (AID 2631); format: functional; details: Homo sapiens;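 further: confirmatory dose-response assay in RAS-dependent BJ fibroblasts engineered with TERT, LT and ST, with cytotoxicity read by fluorescence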
Vero = assay: cells; format: functional; details: Chlorocebus sabaeus
[23] = biological target: DNA dC->dU-editing enzyme APOBEC-3G (Homo sapiens, UniProt Q9HC16); assay: Dose Response confirmation of small molecule APOBEC3G DNA Deaminase Inhibitors via a fluorescence-based single-stranded DNA deaminase assay. [Related pubchem assays (depositor defined):AID493012, AID493028]; format: functional
Sequence of DNA dC->dU-editing enzyme APOBEC-3G (Q9HC16 whole entry): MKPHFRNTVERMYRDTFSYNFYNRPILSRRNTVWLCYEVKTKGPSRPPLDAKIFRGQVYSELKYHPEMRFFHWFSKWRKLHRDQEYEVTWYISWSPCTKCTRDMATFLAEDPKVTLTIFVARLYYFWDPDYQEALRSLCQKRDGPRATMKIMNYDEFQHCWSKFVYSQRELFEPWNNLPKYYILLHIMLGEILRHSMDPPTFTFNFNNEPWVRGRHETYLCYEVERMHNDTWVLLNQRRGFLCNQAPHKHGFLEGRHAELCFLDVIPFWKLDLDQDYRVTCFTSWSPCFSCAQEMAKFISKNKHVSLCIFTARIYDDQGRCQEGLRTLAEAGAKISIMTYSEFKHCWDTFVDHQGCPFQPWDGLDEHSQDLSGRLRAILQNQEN

Sequence of Voltage-dependent T-type calcium channel subunit alpha-1H (O95180 whole entry): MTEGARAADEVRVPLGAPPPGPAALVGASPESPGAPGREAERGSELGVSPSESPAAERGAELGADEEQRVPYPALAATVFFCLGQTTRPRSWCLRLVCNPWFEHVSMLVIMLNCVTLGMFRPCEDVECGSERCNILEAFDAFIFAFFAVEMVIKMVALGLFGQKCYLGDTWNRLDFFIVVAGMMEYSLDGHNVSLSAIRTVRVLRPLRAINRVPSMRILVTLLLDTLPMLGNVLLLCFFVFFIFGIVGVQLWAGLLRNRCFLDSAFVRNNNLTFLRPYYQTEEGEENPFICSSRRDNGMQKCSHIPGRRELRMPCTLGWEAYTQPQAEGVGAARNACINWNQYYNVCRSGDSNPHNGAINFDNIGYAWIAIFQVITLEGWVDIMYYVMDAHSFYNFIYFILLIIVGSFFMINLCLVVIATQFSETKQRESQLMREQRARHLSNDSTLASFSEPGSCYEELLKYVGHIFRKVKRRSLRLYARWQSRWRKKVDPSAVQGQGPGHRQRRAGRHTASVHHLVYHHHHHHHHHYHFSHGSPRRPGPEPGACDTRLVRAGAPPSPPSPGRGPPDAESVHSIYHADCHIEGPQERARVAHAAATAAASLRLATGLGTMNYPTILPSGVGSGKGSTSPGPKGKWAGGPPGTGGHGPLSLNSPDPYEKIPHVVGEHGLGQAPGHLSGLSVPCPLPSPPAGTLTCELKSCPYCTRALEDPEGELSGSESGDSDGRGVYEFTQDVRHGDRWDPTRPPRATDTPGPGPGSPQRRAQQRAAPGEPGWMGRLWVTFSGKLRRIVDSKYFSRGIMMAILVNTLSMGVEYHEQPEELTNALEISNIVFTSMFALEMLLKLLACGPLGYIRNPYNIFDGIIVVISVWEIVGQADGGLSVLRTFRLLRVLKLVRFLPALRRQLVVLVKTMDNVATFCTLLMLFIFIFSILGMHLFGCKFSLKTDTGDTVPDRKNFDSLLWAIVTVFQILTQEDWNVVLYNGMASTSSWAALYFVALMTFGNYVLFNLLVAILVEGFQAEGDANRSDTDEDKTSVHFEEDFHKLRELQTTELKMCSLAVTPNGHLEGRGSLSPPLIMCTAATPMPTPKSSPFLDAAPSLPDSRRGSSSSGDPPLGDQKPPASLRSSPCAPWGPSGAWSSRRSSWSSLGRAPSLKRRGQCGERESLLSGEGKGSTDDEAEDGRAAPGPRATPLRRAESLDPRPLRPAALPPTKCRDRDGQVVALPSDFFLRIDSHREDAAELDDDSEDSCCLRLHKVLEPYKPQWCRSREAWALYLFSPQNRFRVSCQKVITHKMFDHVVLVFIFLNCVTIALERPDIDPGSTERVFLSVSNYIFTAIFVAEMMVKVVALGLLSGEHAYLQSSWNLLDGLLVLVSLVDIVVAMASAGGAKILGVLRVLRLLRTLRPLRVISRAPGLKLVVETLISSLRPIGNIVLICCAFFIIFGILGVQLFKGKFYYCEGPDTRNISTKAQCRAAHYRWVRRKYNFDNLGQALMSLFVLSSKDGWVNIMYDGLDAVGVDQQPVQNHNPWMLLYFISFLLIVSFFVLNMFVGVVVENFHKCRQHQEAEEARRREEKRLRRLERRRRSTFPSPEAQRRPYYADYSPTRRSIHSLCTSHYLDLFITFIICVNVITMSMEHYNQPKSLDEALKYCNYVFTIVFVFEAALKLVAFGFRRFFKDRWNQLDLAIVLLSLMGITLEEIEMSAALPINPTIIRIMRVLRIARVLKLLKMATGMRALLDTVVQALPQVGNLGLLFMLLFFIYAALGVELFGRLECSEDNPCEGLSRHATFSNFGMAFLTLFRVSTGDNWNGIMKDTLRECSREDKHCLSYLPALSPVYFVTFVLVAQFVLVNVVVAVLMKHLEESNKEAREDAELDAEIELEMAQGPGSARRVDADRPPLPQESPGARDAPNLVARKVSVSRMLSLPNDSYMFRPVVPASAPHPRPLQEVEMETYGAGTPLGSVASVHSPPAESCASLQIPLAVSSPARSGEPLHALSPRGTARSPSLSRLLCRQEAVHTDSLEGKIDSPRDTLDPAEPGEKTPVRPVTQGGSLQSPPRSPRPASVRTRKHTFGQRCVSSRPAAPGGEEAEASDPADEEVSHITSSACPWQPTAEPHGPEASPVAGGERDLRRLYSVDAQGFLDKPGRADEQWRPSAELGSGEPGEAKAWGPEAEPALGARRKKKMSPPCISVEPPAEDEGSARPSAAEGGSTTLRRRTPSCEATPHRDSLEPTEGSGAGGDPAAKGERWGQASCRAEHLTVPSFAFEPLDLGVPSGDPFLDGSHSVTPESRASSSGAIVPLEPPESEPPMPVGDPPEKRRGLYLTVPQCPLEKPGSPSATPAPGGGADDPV
Sequence of Glyceraldehyde-3-phosphate dehydrogenase (P04406 whole entry): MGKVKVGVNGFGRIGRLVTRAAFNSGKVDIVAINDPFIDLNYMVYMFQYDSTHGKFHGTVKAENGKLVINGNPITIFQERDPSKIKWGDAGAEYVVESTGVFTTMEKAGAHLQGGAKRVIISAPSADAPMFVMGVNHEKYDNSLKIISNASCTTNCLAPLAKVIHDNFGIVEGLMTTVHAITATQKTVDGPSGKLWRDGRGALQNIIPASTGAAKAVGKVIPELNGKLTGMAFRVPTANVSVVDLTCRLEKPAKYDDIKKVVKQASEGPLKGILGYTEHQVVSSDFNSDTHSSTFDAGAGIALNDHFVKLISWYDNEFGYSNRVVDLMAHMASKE
Sequence of Alkaline phosphatase, placental type (P05187 whole entry): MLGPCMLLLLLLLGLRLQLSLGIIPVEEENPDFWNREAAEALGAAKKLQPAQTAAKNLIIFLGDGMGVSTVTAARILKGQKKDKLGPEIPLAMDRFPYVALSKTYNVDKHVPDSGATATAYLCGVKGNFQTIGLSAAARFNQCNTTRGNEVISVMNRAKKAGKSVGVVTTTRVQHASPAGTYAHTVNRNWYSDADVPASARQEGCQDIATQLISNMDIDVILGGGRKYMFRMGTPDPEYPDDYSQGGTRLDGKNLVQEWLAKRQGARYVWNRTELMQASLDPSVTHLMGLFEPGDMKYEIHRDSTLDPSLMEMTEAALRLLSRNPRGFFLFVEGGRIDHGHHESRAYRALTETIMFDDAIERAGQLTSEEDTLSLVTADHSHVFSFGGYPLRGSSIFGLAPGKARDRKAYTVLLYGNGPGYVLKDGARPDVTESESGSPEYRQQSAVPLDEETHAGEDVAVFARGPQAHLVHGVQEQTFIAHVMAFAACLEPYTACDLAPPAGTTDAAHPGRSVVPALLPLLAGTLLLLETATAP
Sequence of Paired box protein Pax-8 (Q06710 whole entry): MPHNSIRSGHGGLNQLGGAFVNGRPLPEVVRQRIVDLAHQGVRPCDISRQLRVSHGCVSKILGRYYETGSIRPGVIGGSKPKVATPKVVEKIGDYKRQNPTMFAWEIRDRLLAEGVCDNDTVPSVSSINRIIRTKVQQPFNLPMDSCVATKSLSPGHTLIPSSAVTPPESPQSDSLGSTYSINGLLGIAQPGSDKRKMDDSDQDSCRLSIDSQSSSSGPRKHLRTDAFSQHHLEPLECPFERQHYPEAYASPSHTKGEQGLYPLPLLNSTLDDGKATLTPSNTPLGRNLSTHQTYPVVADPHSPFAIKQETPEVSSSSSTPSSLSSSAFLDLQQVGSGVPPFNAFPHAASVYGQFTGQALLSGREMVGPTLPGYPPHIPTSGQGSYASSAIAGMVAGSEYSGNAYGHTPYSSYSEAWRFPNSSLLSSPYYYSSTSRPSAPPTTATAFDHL

For `Cc1cc(Nc2ccccc2)n(-c2ccc(Br)cc2)n1`, the EC50 [1] was 2.24 µM (active).

With `Cc1cc(C)cc(NC(=S)N2CCN(c3ncc(C(F)(F)F)cc3Cl)CC2)c1` the EC50 [2] was 2.66 µM (active).

In the case of `O=C(c1cc(-c2cc(F)c(Cl)cc2Cl)n[nH]1)N1CCCCCC1`, the IC50 [3] was > 100 µM (inactive), the IC50 [4] was > 100 µM (inactive) and the IC50 [5] was > 100 µM (not active).

In the case of `CN1CC=C(/C=C/c2ccc(-c3ccccc3)cc2)CC1`, the EC50 [6] was 2.12 µM (active), the CC50 [7] was 23.7 µM (active) and the CC50 [8] was 12 µM (active). For the same compound, the CC50 [9] was 8.12 µM (active), the CC50 [10] was 9.99 µM (active) and the EC50 [11] was 8.86 µM (active). For the same compound, the IC50 (cells) was 26.6 µM (active).

For `COc1ccc(C2C(O)C(c3c[nH]c4ccccc34)=NN2C(=O)CCl)cc1` (stereo not drawn), the EC50 (BJ [12]) was 1.13 µM (inconclusive), the AC50 (Paired box protein Pax-8) was 0.65 µM (active) and the EC50 [13] was 11.1 µM (active). The EC50 [14] was > 30 µM (not active), the EC50 (BJ [15]) was 0.622 µM (inconclusive) and the EC50 (BJ [16]) was 2.65 µM (inconclusive). For the same compound, the EC50 [17] was 8.2 µM (active), the IC50 [18] was 1.49 µM (active) and the EC50 [19] was 1.37 µM (inconclusive). The AC50 [20] was 0.954 µM (active), the EC50 (Protein RecA) was 0.582 µM (active) and the AC50 (INS1) was 2.19 µM (active). For the same compound, the AC50 [21] was 2.56 µM (active) and the EC50 (BJ [22]) was 0.443 µM (active).

For `Cc1ccc(C(=O)Nc2ccc3c(c2)OCO3)cc1S(=O)(=O)N1CCCCC1`, the EC50 [1] was 4.78 µM (active).

For `CC(/C=C\C=C\c1ccccc1)=N\NC(=O)c1cncc(Br)c1`, the CC50 [7] was 35 µM (active), the CC50 [8] was > 20 µM (active) and the IC50 (cells) was 12 µM (active).

With `CC1(C)CC(=O)c2c(-c3cccc(Br)c3)n[nH]c2C1` the IC50 [3] was > 100 µM (inactive), the IC50 [4] was > 100 µM (inactive) and the IC50 [5] was > 100 µM (not active).

For `CCN(CCNC(=O)CS(=O)(=O)Cc1nc(-c2cccc(OC)c2)oc1C)c1ccccc1`, the EC50 [1] was 1.49 µM (active).

For `O=C(CSc1nnc(-c2ccccc2Cl)[nH]1)c1ccc(O)c(O)c1`, the IC50 [3] was 8.15 µM (active), the IC50 [4] was 1.36 µM (active) and the IC50 [5] was > 100 µM (not active).

In the case of `Cc1ccc(C(=O)NNC(=S)NC(=O)COc2ccccc2)cc1`, the CC50 (Vero) was > 25 µM (active), the IC50 [23] was 36.3 µM (active) and the EC50 [2] was 1.5 µM (active).

In the case of `CCN1CCN(c2ccc(S(=O)(=O)N3CCCCC3)cc2NC(=O)COc2ccccc2)CC1`, the EC50 [6] was 1.01 µM (active), the EC50 [2] was 6.68 µM (active) and the EC50 [11] was > 60 µM (not active).
